Experimental data published in paper PMC10049354, “Anti-Inflammatory Effects and Photo- and Neuro-Protective Properties of BIO203, a New Amide Conjugate of Norbixin, in Development for the Treatment of Age-Related Macular Degeneration (AMD)” (International Journal of Molecular Sciences, 2023).

System: Abca4−/− Rdh8−/− mice
Experiment: Photoreceptor nuclear layer thickness after 6 months of oral complementation in Abca4−/− Rdh8−/− mice
Format: in vivo, mouse
Settings: HD pellets, 17-month-old mice
Procedure: At the end of the measurement period on Day 7, rats were euthanized by an intraperitoneal injection of pentobarbital. Immediately after euthanasia, both eyeballs were sampled, fixed in Davidson’s solution, and processed for histology. Sections (5 to 7 µm thick) were performed along the vertical meridian and stained with Haematoxylin/Eosin stain. The vertical meridian included the optic nerve. […] The thickness of the outer nuclear layer was measured on each point. […] Histology and photoreceptor counting in mice were performed as previously described.
A custom rodent diet was formulated and irradiated (25 kGy) by Envigo RMS SARL (Gannat, France). Low dose (LD)-BIO203 (50 μg/g) and high dose (HD)-BIO203 (500 μg/g) were incorporated into Teklad Custom Research Diet 2016© pellets. […] The concentration of BIO203 in the customized pellets at the end of each batch was determined by HPLC MS/MS. […] We calculated that in the LD group, male mice weighing 31.63 g after 2 months of complementation consumed 4.16 g of pellets, and in the HD group, male mice weighing 34.11 g after 2 months of complementation consumed 4.11 g of pellets every day, which correspond to a daily dose of 6.04 ± 0.46 mg/kg for the LD-BIO203 pellets and 55.91 ± 2.93 mg/kg for the HD-BIO203 pellets. […]

SMILES: COC1CCCN(C(=O)/C=C/C(C)=C/C=C/C(C)=C/C=C/C=C(C)/C=C/C=C(C)\C=C\C(=O)O)C1 (stereo not shown) [BIO203]
- thickness of the photoreceptor nuclear layer compared with LD or control pellets: No difference
